Measured values as given in patent US20230085307A1, “PYRIDAZINONE COMPOUND AND HERBICIDE” (NISSAN CHEMICAL CORPORATION, priority 2019, published 2023).

What was measured:
wild oat [1] = experiment: Test Example 5: herbicidal effect by foliage application, plastic box (Table 20, symbol I); assay type: in vivo, wild oat (Avena fatua)
How it was run: (§1)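 Post-emergence foliar test in sterilized diluvial soil. Compound applied as water-diluted emulsion at a predetermined rate to 14-day-old plants; evaluation at three weeks.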

persian speedwell [2] = experiment: Test Example 5: herbicidal effect by foliage application, plastic box (Table 20, symbol R); assay type: in vivo, Persian speedwell (Veronica persica)
How it was run: as §1

velvetleaf [3] = experiment: Test Example 4: herbicidal effect by soil treatment (Table 19, symbol M); assay type: in vivo, velvetleaf (Abutilon theophrasti); details: amount of applied herbicide 320 g/ha
How it was run: (§2)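 Scoring uses the grading scale of an earlier test, three weeks post-application. Treatment consists of spraying a diluted emulsion formulation across the surface of sterilized diluvial soil in which seeds are buried near 1.5 cm deep; boxes are kept in a greenhouse between 25° C. and 30° C.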

redroot pigweed [4] = experiment: Test Example 4: herbicidal effect by soil treatment (Table 19, symbol N); assay type: in vivo, redroot pigweed (Amaranthus retroflexus); details: amount of applied herbicide 320 g/ha
How it was run: as §2

green foxtail [5] = experiment: Test Example 4: herbicidal effect by soil treatment (Table 19, symbol G); assay type: in vivo, green foxtail (Setaria viridis); details: amount of applied herbicide 320 g/ha
How it was run: as §2

windgrass [6] = experiment: Test Example 5: herbicidal effect by foliage application, plastic box (Table 20, symbol L); assay type: in vivo, windgrass (Apera spica-venti)
How it was run: as §1

barnyard grass [7] = experiment: Test Example 5: herbicidal effect by foliage application, plastic box (Table 20, symbol H); assay type: in vivo, barnyard grass (Echinochloa crus-galli)
How it was run: as §1

lambsquarters [8] = experiment: Test Example 4: herbicidal effect by soil treatment (Table 19, symbol O); assay type: in vivo, lambsquarters (Chenopodium album); details: amount of applied herbicide 320 g/ha
How it was run: as §2

southern crabgrass [9] = experiment: Test Example 5: herbicidal effect by foliage application, plastic box (Table 20, symbol F); assay type: in vivo, southern crabgrass (Digitaria ciliaris)
How it was run: as §1

Italian ryegrass [10] = experiment: Test Example 4: herbicidal effect by soil treatment (Table 19, symbol K); assay type: in vivo, Italian ryegrass (Lolium multiflorum); details: amount of applied herbicide 320 g/ha
How it was run: as §2

chickweed [11] = experiment: Test Example 4: herbicidal effect by soil treatment (Table 19, symbol P); assay type: in vivo, common chickweed (Stellaria media); details: amount of applied herbicide 320 g/ha
How it was run: as §2

barnyard grass [12] = experiment: Test Example 3: herbicidal effect by foliage application, Wagner pot (Table 18, symbol H); assay type: in vivo, barnyard grass (Echinochloa crus-galli)
How it was run: (§3)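 Plants were sown in alluvial soil held under 0.1–0.5 cm standing water and grown 14 days in a greenhouse at 25–30 °C. An emulsifiable formulation, water-diluted to the set dose, was then sprayed onto the foliage, and effects were scored three weeks later using previously defined criteria.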

Chinese sprangletop = experiment: Test Example 3: herbicidal effect by foliage application, Wagner pot (Table 18, symbol D); assay type: in vivo, chinese sprangletop (Leptochloa chinensis)
How it was run: as §3

lambsquarters [13] = experiment: Test Example 5: herbicidal effect by foliage application, plastic box (Table 20, symbol O); assay type: in vivo, lambsquarters (Chenopodium album)
How it was run: as §1

persian speedwell [14] = experiment: Test Example 4: herbicidal effect by soil treatment (Table 19, symbol R); assay type: in vivo, Persian speedwell (Veronica persica); details: amount of applied herbicide 320 g/ha
How it was run: as §2

southern crabgrass [15] = experiment: Test Example 4: herbicidal effect by soil treatment (Table 19, symbol F); assay type: in vivo, southern crabgrass (Digitaria ciliaris); details: amount of applied herbicide 320 g/ha
How it was run: as §2

barnyard grass [16] = experiment: Test Example 4: herbicidal effect by soil treatment (Table 19, symbol H); assay type: in vivo, barnyard grass (Echinochloa crus-galli); details: amount of applied herbicide 320 g/ha
How it was run: as §2

redroot pigweed [17] = experiment: Test Example 5: herbicidal effect by foliage application, plastic box (Table 20, symbol N); assay type: in vivo, redroot pigweed (Amaranthus retroflexus)
How it was run: as §1

rice flat sedge = experiment: Test Example 3: herbicidal effect by foliage application, Wagner pot (Table 18, symbol E); assay type: in vivo, rice flat sedge (Cyperus iria)
How it was run: as §3

velvetleaf [18] = experiment: Test Example 5: herbicidal effect by foliage application, plastic box (Table 20, symbol M); assay type: in vivo, velvetleaf (Abutilon theophrasti)
How it was run: as §1

blackgrass = experiment: Test Example 5: herbicidal effect by foliage application, plastic box (Table 20, symbol J); assay type: in vivo, blackgrass (Alopecurus myosuroides)
How it was run: as §1

green foxtail [19] = experiment: Test Example 5: herbicidal effect by foliage application, plastic box (Table 20, symbol G); assay type: in vivo, green foxtail (Setaria viridis)
How it was run: as §1

wild oat [20] = experiment: Test Example 4: herbicidal effect by soil treatment (Table 19, symbol I); assay type: in vivo, wild oat (Avena fatua); details: amount of applied herbicide 320 g/ha
How it was run: as §2

chickweed [21] = experiment: Test Example 5: herbicidal effect by foliage application, plastic box (Table 20, symbol P); assay type: in vivo, common chickweed (Stellaria media)
How it was run: as §1

Italian ryegrass [22] = experiment: Test Example 5: herbicidal effect by foliage application, plastic box (Table 20, symbol K); assay type: in vivo, Italian ryegrass (Lolium multiflorum)
How it was run: as §1

windgrass [23] = experiment: Test Example 4: herbicidal effect by soil treatment (Table 19, symbol L); assay type: in vivo, windgrass (Apera spica-venti); details: amount of applied herbicide 320 g/ha
How it was run: as §2

[24] = amount of applied herbicide 320 g/ha, foliage application after 14-day growth, evaluated three weeks after application
[25] = foliage application, 320 g/ha, evaluated 3 weeks after application
[26] = amount of applied herbicide 320 g/ha

**Q.** Which results are given for `Cc1nn(C)c(=O)c(-c2c(-c3ccc4c(c3)OCCO4)sc3cc(F)c(F)cc23)c1O` [5-037]?
**A.** Herbicidal effect by foliage application, I: wild oat (wild oat [1]; [24]): 0 (Herbicidal rate of 5% or less (almost no effect)); Herbicidal effect by foliage application, R: persian speedwell (persian speedwell [2]; [24]): 5 (Herbicidal rate of 90% or more (almost completely withered)); M: velvetleaf, herbicidal effect grade (velvetleaf [3]): 5 (Herbicidal rate of 90% or more (almost completely withered)); N: redroot pigweed, herbicidal effect grade (redroot pigweed [4]): 4 (Herbicidal rate of 70% or more and less than 90%); G: green foxtail, herbicidal effect grade (green foxtail [5]): 0 (Herbicidal rate of 5% or less (almost no effect)); Herbicidal effect by foliage application, L: windgrass (windgrass [6]; [24]): 0 (Herbicidal rate of 5% or less (almost no effect)); Herbicidal effect by foliage application, H: barnyard grass (barnyard grass [7]; [24]): 0 (Herbicidal rate of 5% or less (almost no effect)); O: lambsquarters, herbicidal effect grade (lambsquarters [8]): 5 (Herbicidal rate of 90% or more (almost completely withered)); Herbicidal effect by foliage application, F: southern crabgrass (southern crabgrass [9]; [24]): 0 (Herbicidal rate of 5% or less (almost no effect)); K: Italian ryegrass, herbicidal effect grade (Italian ryegrass [10]): 0 (Herbicidal rate of 5% or less (almost no effect)); P: chickweed, herbicidal effect grade (chickweed [11]): 0 (Herbicidal rate of 5% or less (almost no effect)); herbicidal effect on barnyard grass (H) (barnyard grass [12]; 320 g/ha): 4 (Herbicidal rate of 70% or more and less than 90%); herbicidal effect on Chinese sprangletop (D) (Chinese sprangletop; 320 g/ha): 4 (Herbicidal rate of 70% or more and less than 90%); Herbicidal effect by foliage application, O: lambsquarters (lambsquarters [13]; [24]): 5 (Herbicidal rate of 90% or more (almost completely withered)); R: persian speedwell, herbicidal effect grade (persian speedwell [14]): 5 (Herbicidal rate of 90% or more (almost completely withered)); F: southern crabgrass, herbicidal effect grade (southern crabgrass [15]): 0 (Herbicidal rate of 5% or less (almost no effect)); H: barnyard grass, herbicidal effect grade (barnyard grass [16]): 0 (Herbicidal rate of 5% or less (almost no effect)); Herbicidal effect by foliage application, N: redroot pigweed (redroot pigweed [17]; [24]): 5 (Herbicidal rate of 90% or more (almost completely withered)); herbicidal effect on rice flat sedge (E) (rice flat sedge; 320 g/ha): 5 (Herbicidal rate of 90% or more (almost completely withered)); Herbicidal effect by foliage application, M: velvetleaf (velvetleaf [18]; [24]): 5 (Herbicidal rate of 90% or more (almost completely withered)); Herbicidal effect by foliage application, J: blackgrass (blackgrass; [24]): 0 (Herbicidal rate of 5% or less (almost no effect)); Herbicidal effect by foliage application, G: green foxtail (green foxtail [19]; [24]): 0 (Herbicidal rate of 5% or less (almost no effect)); I: wild oat, herbicidal effect grade (wild oat [20]): 0 (Herbicidal rate of 5% or less (almost no effect)); Herbicidal effect by foliage application, P: chickweed (chickweed [21]; [24]): 5 (Herbicidal rate of 90% or more (almost completely withered)); Herbicidal effect by foliage application, K: Italian ryegrass (Italian ryegrass [22]; [24]): 0 (Herbicidal rate of 5% or less (almost no effect)); L: windgrass, herbicidal effect grade (windgrass [23]): 0 (Herbicidal rate of 5% or less (almost no effect))

**Q.** How did the “I (wild oat) herbicidal effect grade” value (wild oat [1]; [25]) turn out when `COCc1ccc(-c2oc3ccc(C)cc3c2-c2c(O)c(C)nn(C)c2=O)cc1` [9-061] was run?
**A.** 3 (Herbicidal rate of 40% or more and less than 70%)

**Q.** What about the “R (persian speedwell) herbicidal effect grade” value (persian speedwell [2]; [25]) of the same compound?
**A.** 5 (Herbicidal rate of 90% or more (almost completely withered))

**Q.** And the “M: velvetleaf, herbicidal effect grade” value (velvetleaf [3])?
**A.** 4 (Herbicidal rate of 70% or more and less than 90%)

**Q.** And the “N: redroot pigweed, herbicidal effect grade” value (redroot pigweed [4])?
**A.** 5 (Herbicidal rate of 90% or more (almost completely withered))

**Q.** What about the “G: green foxtail, herbicidal effect grade” value (green foxtail [5]) of the same compound?
**A.** 5 (Herbicidal rate of 90% or more (almost completely withered))

**Q.** And the “L (windgrass) herbicidal effect grade” value (windgrass [6]; [25])?
**A.** 4 (Herbicidal rate of 70% or more and less than 90%)

**Q.** And the “H (barnyard grass) herbicidal effect grade” value (barnyard grass [7]; [25])?
**A.** 5 (Herbicidal rate of 90% or more (almost completely withered))

**Q.** What about the “O: lambsquarters, herbicidal effect grade” value (lambsquarters [8]) of the same compound?
**A.** 5 (Herbicidal rate of 90% or more (almost completely withered))

**Q.** And the “F (southern crabgrass) herbicidal effect grade” value (southern crabgrass [9]; [25])?
**A.** 5 (Herbicidal rate of 90% or more (almost completely withered))

**Q.** And the “K: Italian ryegrass, herbicidal effect grade” value (Italian ryegrass [10])?
**A.** 5 (Herbicidal rate of 90% or more (almost completely withered))

**Q.** And the “P: chickweed, herbicidal effect grade” value (chickweed [11])?
**A.** 4 (Herbicidal rate of 70% or more and less than 90%)

**Q.** What about the “Herbicidal effect on H (barnyard grass), foliage application” value (barnyard grass [12]; [26]) of the same compound?
**A.** 5 (Herbicidal rate of 90% or more (almost completely withered))

**Q.** What about the “Herbicidal effect on D (Chinese sprangletop), foliage application” value (Chinese sprangletop; [26]) of the same compound?
**A.** 4 (Herbicidal rate of 70% or more and less than 90%)

**Q.** And the “O (lambsquarters) herbicidal effect grade” value (lambsquarters [13]; [25])?
**A.** 5 (Herbicidal rate of 90% or more (almost completely withered))

**Q.** What about the “R: persian speedwell, herbicidal effect grade” value (persian speedwell [14]) of the same compound?
**A.** 5 (Herbicidal rate of 90% or more (almost completely withered))

**Q.** And the “F: southern crabgrass, herbicidal effect grade” value (southern crabgrass [15])?
**A.** 5 (Herbicidal rate of 90% or more (almost completely withered))

**Q.** What about the “H: barnyard grass, herbicidal effect grade” value (barnyard grass [16]) of the same compound?
**A.** 5 (Herbicidal rate of 90% or more (almost completely withered))

**Q.** And the “N (redroot pigweed) herbicidal effect grade” value (redroot pigweed [17]; [25])?
**A.** 5 (Herbicidal rate of 90% or more (almost completely withered))

**Q.** What about the “Herbicidal effect on E (rice flat sedge), foliage application” value (rice flat sedge; [26]) of the same compound?
**A.** 5 (Herbicidal rate of 90% or more (almost completely withered))

**Q.** What about the “M (velvetleaf) herbicidal effect grade” value (velvetleaf [18]; [25]) of the same compound?
**A.** 5 (Herbicidal rate of 90% or more (almost completely withered))

**Q.** What about the “J (blackgrass) herbicidal effect grade” value (blackgrass; [25]) of the same compound?
**A.** 5 (Herbicidal rate of 90% or more (almost completely withered))

**Q.** What about the “G (green foxtail) herbicidal effect grade” value (green foxtail [19]; [25]) of the same compound?
**A.** 5 (Herbicidal rate of 90% or more (almost completely withered))

**Q.** And the “I: wild oat, herbicidal effect grade” value (wild oat [20])?
**A.** 2 (Herbicidal rate of 20% or more and less than 40%)

**Q.** What about the “P (chickweed) herbicidal effect grade” value (chickweed [21]; [25]) of the same compound?
**A.** 5 (Herbicidal rate of 90% or more (almost completely withered))

**Q.** What about the “K (Italian ryegrass) herbicidal effect grade” value (Italian ryegrass [22]; [25]) of the same compound?
**A.** 5 (Herbicidal rate of 90% or more (almost completely withered))

**Q.** And the “L: windgrass, herbicidal effect grade” value (windgrass [23])?
**A.** 0 (Herbicidal rate of 5% or less (almost no effect))
